The values below come from article PMC6100501, “Evaluation of the Antimicrobial Activity and Cytotoxicity of Different Components of Natural Origin Present in Essential Oils” (Molecules : A Journal of Synthetic Chemistry and Natural …, 2018).

Converted amounts (≈) assume the structure as drawn. Like-named read-outs stand apart in the source and are kept apart here.

Data set [1] concerns S. aureus ATCC 25923. The experiment in a line: MIC and MBC determination, broth microdilution method. In kind it is cell-based. Particulars: Staphylococcus aureus. As to the method:
(§1) A Gram-negative model E. coli S17 strain was used, which was kindly donated by Dr. Jose Antonio Ainsa, exerting resistance to streptomycin as it is also widely used for transformation purposes. S. aureus ATCC 25923, well-known as not a resistant strain and used in susceptibility tests, was evaluated as a Gram-positive model. Both strains were initially grown overnight in TSB at 37 °C under shaking (150 rpm) obtaining, in the stationary growth phase, 10^8–10^9 CFU/mL. TSA was used for seeding bacteria in an incubator at 37 °C (Memmert, Schwabach, Germany) in order to calculate the bacteria growth (CFU/mL) after treatment with the EO-contained molecules.
(§2) Inhibitory and bactericidal concentrations of active EO molecules were tested in two bacteria cultures, E. coli and S. aureus, following the broth microdilution method. Liquid growth medium containing an inoculum of 10^5 CFU/mL and serial concentrations of the EO compounds (0.1–4 mg/mL) were used. EO compounds were solubilized in culture medium by adding Tween® 80 (1.5–2% v/v) prior to their serial dilution. Once bacteria suspension was in stationary growth (10^8–10^9 CFU/mL), it was further diluted to ~10^5 CFU/mL and added to different concentrations ([…]) of the antimicrobial agents. Then, samples were incubated for 24 h at 37 °C under shaking (150 rpm). After incubation, bacterial suspensions were diluted in PBS and spot-plated on TSA plates to count colonies after incubation at 37 °C for 24 h. Positive control (untreated bacteria) and negative control (chlorhexidine treated bacteria) samples were also tested.
In general terms: Broth dilution looks for growth in wells or tubes with falling amounts of substance.

Data set [2] deals with E. coli S17 strain. The description is as above. Particulars: Escherichia coli, S17STRAIN, 24 h, 37 °C, average of 12 replicas. Type of data set: cell-based. As to the method:
as §1, §2

Data set [3] has as its system E. coli and S. aureus. The experiment in a line: Bactericidal mechanism by SEM, flow cytometry and confocal microscopy. Type of data set: cell-based, Escherichia coli, Staphylococcus aureus. Particulars: treated at MIC and MBC for 24 h. As to the method:
Bacteria morphology before and after treatment with EO molecules was analyzed by SEM as we previously reported. Briefly, logarithmic growth phase E. coli and S. aureus bacteria cultures (~10^5 CFU/mL) were treated with the selected EO compounds at MIC and MBC values and incubated overnight at 37 °C. Following incubation, samples were spin-dried at 600 g and washed twice in PBS (0.1 M). Bacteria were fixed in 2.5% glutaraldehyde for 90 min and subsequently filtered and dehydrated in ethanol solutions series (30, 50, 70, 80, 90, and 100%; twice for 15 min). Finally, samples were air-dried at room temperature and covered with Pt. SEM micrographs were acquired in a SEM Inspect F50 equipment (FEI Co., LMA-INA, Zaragoza, Spain).
In order to study the bactericidal mechanism of the different molecules present in EOs, E. coli and S. aureus bacteria samples (10^7 CFU/mL) were centrifuged at 4400× g for 10 min and resuspended in the different compound solutions at MIC and MBC concentrations following the protocols previously described. Control groups (not treated and chlorhexidine treated bacteria) were also analyzed. All samples were incubated overnight at 37 °C. After propidium iodide (25 µg/mL; Sigma-Aldrich, Munich, Germany) addition, samples were analyzed by flow cytometry in Gallios equipment (Beckman Coulter Company, Cell Separation and Cytometry Unit, CIBA, IIS Aragon, Zaragoza, Spain).
The Live/Dead®BacLight™ bacterial viability kit (Molecular Probes, Fisher Scientific, Hampton, USA) was used to detect bacteria membrane damage. The methodology is based on the double-staining by SYTO9 and propidium iodide as indicated by the manufacturer. […] Samples were then mounted on slides and visualized by confocal microscopy (Leica TCS SP2 Laser Scanning Confocal Microscope, Microscopy Unit, CIBA, IIS Aragon, Zaragoza, Spain). Control samples were also tested as described above.

Data set [4] relates to macrophages (THP1 human monocytes differentiated with PMA). The experiment in a line: Cytotoxicity, Blue Cell Viability assay. Particulars: 24 h. As to the method: (§3) Human dermal fibroblasts, human epidermal keratinocytes (HaCaT), and THP1 human monocytes were used to evaluate the cytotoxic effects of EO-based compounds.
(§4) Fibroblasts and HaCaT were routinely grown in high-glucose DMEM supplemented with 10% FBS and antibiotic-antimycotic. Monocytes were cultured in RPMI 1640 supplemented with 10% FBS, 1% HEPES, 1% nonessential amino acids, 0.1% 2-mercaptoethanol 50 mM, 1% sodium pyruvate 100 mM, and antibiotic-antimycotic. Macrophages were obtained by the in vitro differentiation of monocytes by adding 1 µM PMA to the cell culture. All cell types were grown in a humidified atmosphere at 37 °C and 5% CO2.
(§5) The cytotoxicity was determined by measuring cell metabolism through the Blue Cell Viability assay. Cells were seeded on MW96 microplates and incubated with the tested molecules (0.004–0.125 mg/mL) for 24 h. Control samples (not treated and chlorhexidine treated) were also analyzed. Then, the reagent was added (10%) and cells were incubated for 4 h at 37 °C. The reduction of the dye by metabolically active cells was monitored in a microplate reader (Multimode Synergy HT Microplate Reader; Biotek, Winooski, WI, USA) at 535/590 nm ex/em. Cell viability was determined by interpolation of the emission data obtained from the treated samples and the control samples (not treated cells, 100% viability).

Data set [5] deals with human epidermal keratinocytes (HaCaT). The experiment in a line: Cytotoxicity, Blue Cell Viability assay. The note with it: 24 h; for subcytotoxic dose: keratinocytes. As to the method: as §3, §4, §5
For data set [6], the system named is human dermal fibroblasts. The experiment in a line: Cytotoxicity, Blue Cell Viability assay. Particulars: 24 h. As for the experimental part: as §3, §4, §5
Data set [7] has as its system fibroblasts. The note with it: cited from earlier work.
In data set [8] the test system is intestinal cells. The note with it: cited from earlier work.
The subject of data set [9] is human dermal fibroblasts, keratinocytes, and macrophages. Particulars: 24 h. As for the experimental part:
as §3, §4, §5

Data set [10] is described as follows: Cytotoxicity, Blue Cell Viability assay. Particulars: human, human dermal fibroblasts. As for the experimental part:
as §3, §4, §5

Data set [11] relates to S. aureus biofilm. The experiment in a line: Biofilm disruption: elimination of preformed biofilm (CFU/mL count). Type of data set: cell-based, Staphylococcus aureus. The note with it: 0.5 mg/mL, 24 h, vs untreated biofilm. As to the method:
S. aureus was grown overnight in TSB until stationary growth phase was reached. At this point, bacteria were adjusted to 10^7 CFU/mL and added to a MW96 microplate and incubated at 37 °C for 16 h without shaking. After incubation, culture medium was discarded and biofilms were washed twice with PBS. In order to determine biofilm formation, Calcofluor White Stain (50 µL) was added to each well and incubated 1 min in the dark at room temperature. After incubation, the stain was removed and biofilms were washed twice with PBS. Samples were air-dried in the dark to be further visualized in an inverted fluorescence microscope (Olympus IX81). The effects of EO molecules (0.25–1 mg/mL) to prevent the formation of biofilm and to disrupt an already formed S. aureus biofilm were studied. EO compounds were added to preformed biofilms and samples were incubated for 24 h at 37 °C without shaking. After incubation, biofilms were disrupted by sonication (15 min, 200 W; Ultrasons, JP Selecta, Barcelona, Spain). Samples were then diluted and seeded onto agar plates to count the viable colonies grown after 24 h of incubation at 37 °C.

Data set [12] has as its system tumor cell lines. The note with it: cited from earlier work.
For data set [13], the system named is S. aureus biofilm. The experiment in a line: Inhibition of biofilm formation (CFU/mL count). In kind it is cell-based, Staphylococcus aureus. The note with it: added to bacteria suspension, 16 h; concentration not printed in the sentence (Figure 5B). As for the experimental part:
To study the effects of the compounds present in the EOs on biofilm formation, those were added to bacterial suspensions (10^7 CFU/mL) in a MW96 microplate and incubated for 16 h at 37 °C without shaking. After incubation, planktonic cells were removed by washing them twice with PBS. Biofilm samples were then sonicated as described above and serially diluted to be further plated on agar. Viable bacteria (CFU/mL) were counted after 24 h of incubation at 37 °C.

For data set [14], the system named is S. aureus ATCC 6538. The note with it: cited from earlier work.
Data set [15] has as its system S. aureus ATCC 43300. Particulars: cited from earlier work.
Data set [16] has as its system S. aureus. Particulars: cited from earlier work.
Setting [17] is: ATCC25923, S. aureus, 24 h, 37 °C, average of 12 replicas, read-out: MBC.
Where [18] appears, read: ATCC25923, S. aureus, 24 h, 37 °C, average of 12 replicas, read-out: MIC.

Consider `C=C1CC/C=C(\C)CC[C@@H]2[C@@H]1CC2(C)C` [β-caryophyllene], for which the MBC in [1] (setting [17]) and in data set [2] was greater than 4000 µg/mL each time. The MIC in data set [1] (setting [18]) and in [2] was greater than 4000 µg/mL throughout.
Consider `Cc1ccc(C(C)C)c(O)c1` [Thymol], for which, in [3], the bactericidal mechanism result was “membrane disruption”. Moreover, the MBC in data set [1] (setting [17]) and in [2] was 300 µg/mL (≈ 2 mM) throughout. Also, the MIC in [1] (setting [18]) and in [2] was 200 µg/mL (≈ 1.33 mM) in each case. In addition, the subcytotoxic concentration in data set [4] (human) is 0.060 mg/mL; in data set [8], ~ 500 µM. The subcytotoxic dose in data set [5] was determined as 0.060 mg/mL. The “concentration toxic to fibroblasts (affects viability)” value (from here on “concentration toxic to fibroblasts”) in [6] (human) was no less than 90 µg/mL. Besides, the “concentration giving 50% viability” value in data set [7] is ~ 5 µg/mL.
With `C=CCc1ccc(O)c(OC)c1` [Eugenol], the MBC (usually the smallest concentration meeting the test's criterion for killing) in [1] (setting [17]) was determined as 1500 µg/mL (≈ 9.13 mM); in data set [2] it was 500 µg/mL (≈ 3.04 mM). The MIC in data set [1] (setting [18]) was found to be 1300 µg/mL (≈ 7.92 mM); in data set [2], 400 µg/mL (≈ 2.44 mM).
Take `[H]/N=C(\N/C(=N/[H])NCCCCCCNC(=N)NC(=N)Nc1ccc(Cl)cc1)Nc1ccc(Cl)cc1` [chlorhexidine, reference compound]: the subcytotoxic concentration was 0.004 mg/mL in data set [9] and “lower than 0.004 mg/mL” in data set [4] (human). In addition, the viability (in general, a per cent measure of how many cells are alive, often set against a control) at 24 h, 0.004 mg/mL in [10] was greater than 70%. Moreover, in [5], the subcytotoxic dose entry is reported as “lower than 0.004 mg/mL”.
For `O=C(/C=C/c1ccc(O)c(O)c1)O[C@H](Cc1ccc(O)c(O)c1)C(=O)O` [Rosmarinic acid], the results for the MBC in data set [1] (setting [17]) and in [2] were 4000 µg/mL (≈ 11.1 mM) and greater than 4000 µg/mL, respectively. Besides, the MIC is 2500 µg/mL (≈ 6.94 mM) in data set [1] (setting [18]) and greater than 4000 µg/mL in data set [2].
`O=C/C=C/c1ccccc1` [Cinnamaldehyde]: in [11], the “reduction in bacteria growth (CFU/mL) of preformed biofilm” value is “around 2 logs”. In data set [12], the subcytotoxic concentration is reported as ~ 10 µg/mL. The bactericidal mechanism entry in data set [3] was “membrane disruption”. Also, the MBC in data set [1] (setting [17]) was 500 µg/mL (≈ 3.78 mM); in [2], 300 µg/mL (≈ 2.27 mM). Further, the MIC turned out to be 400 µg/mL (≈ 3.03 mM) in [1] (setting [18]) and 200 µg/mL (≈ 1.51 mM) in data set [2]. The “dose that reduces viability below 70%” value in data set [4] (human) and in [5] (human) was 0.030 mg/mL each time. For the same compound, the “concentration toxic to fibroblasts” value in [6] (human) amounted to 15 µg/mL. Moreover, the “decrease in posterior bacterial growth, compound added before biofilm formation” value in [13] was determined as 4 logs.
In the case of `Cc1ccc(C(C)C)cc1O` [Carvacrol], the “reduction in bacteria growth (CFU/mL) of preformed biofilm” value in [11] was 3 logs. Also, the bactericidal mechanism result in [3] is given as “membrane disruption”. Further, the MBC in data set [1] (ATCC25923, 24 h) is 300 µg/mL (≈ 2 mM); in [2], 400 µg/mL (≈ 2.66 mM). In addition, the MIC is 200 µg/mL (≈ 1.33 mM) in data set [1] (ATCC25923, 24 h); 200 µg/mL (≈ 1.33 mM) in [2]; “approximately 0.147 mg/mL” in data set [14] (converted from 0.015% v/v); “approximately 2.45 mg/mL” in data set [14] (converted from 2.5 µL/mL); 0.015 % v/v in [14] (ref 18); 2.5 µL/mL in [14] (ref 21). Moreover, the MIC in [14] (ref 22) is 0.4 mg/mL (≈ 2.66 mM); in [15], 310 µg/mL (≈ 2.06 mM); in [16] (lower end of literature range), “approximately 0.15 mg/mL”; in data set [16] (upper end of literature range) it was 15000 µg/mL (≈ 99.9 mM). Further, the subcytotoxic concentration in [4] (macrophages) is given as 0.090 mg/mL; in [8] (intestinal cells), ~ 500 µM. Moreover, the subcytotoxic dose in data set [5] is on record as 0.030 mg/mL. Besides, the “concentration toxic to fibroblasts” value in data set [6] (viability below 70% (ISO 10993-5)) was no less than 90 µg/mL. Moreover, in [13], the “decrease in posterior bacterial growth, compound added before biofilm formation” value is roughly 6 logs. Also, the “concentration giving 50% viability” value in [7] (fibroblasts) was ~ 5 µg/mL.
For the compound `CC(C)=CCC/C(C)=C/CC/C(C)=C/CC/C=C(\C)CC/C=C(\C)CCC=C(C)C` [Squalene], the MBC in [1] (setting [17]) and in data set [2] was greater than 4000 µg/mL throughout. The MIC in data set [1] (setting [18]) and in data set [2] was greater than 4000 µg/mL in each case.
